Data published in patent US20190231748A1, “COMPOSITION FOR VAGINA AND ANTIMICROBIAL AGENT COMBINATION FOR USE IN PREPARING COMPOSITION FOR VAGINA” (Shenzhen Eulikan Biotechnology Co., Ltd., priority 2016, published 2019).

Tests used:
Type in all cases: cell-based
[1] = tested on: three strains of Escherichia coli isolated from the vaginal secretion of patients with vaginitis; test: Growth in enrichment broth (turbidity after 24 hours), clinical strains; set-up: key to growth of Escherichia coli, Bacterial strain 1 / growth of Escherichia coli, Bacterial strain 2 / growth of Escherichia coli, Bacterial strain 3: +: means the growth of bacteria; −: means no growth of bacteria; settings: for growth of Escherichia coli, Bacterial strain 1 / growth of Escherichia coli, Bacterial strain 2 / growth of Escherichia coli, Bacterial strain 3: enrichment broth, 37° C. for 24 hours, turbidity
Description: (§1) a. Experimental strains, three strains of Escherichia coli and three strains of Staphylococcus aureus, which were all isolated from the vaginal secretion of patients with vaginitis.
(§2) b. Enrichment broth, which contained 1 percent of yeast extract powder, 9 percent of sucrose, 0.025 percent of manganese sulfate (MnSO4.4H2O), 0.058 percent of magnesium sulfate (MgSO4.7H2O), and 0.9 percent of lactic acid, the pH value of the broth was adjusted to 4.8, and the enrichment broth was sterilized for later use;
(§3) (2). Experimental groups: the requirements for aseptic operation technique were strictly followed to prepare the sterile test tubes:
(§4) a. sodium benzoate group: each test tube contained 5 milliliters of enrichment broth, and was added in 0.05 percent (weight/volume) sodium benzoate;
(§5) b. 2-phenylethanol group: each test tube contained 5 milliliters of enrichment broth, and was added in 0.05 percent (weight/volume) of 2-phenylethanol;
(§6) c. sodium propionate group: each test tube contained 5 milliliters of enrichment broth, and was added in 0.25 percent (weight/volume) of sodium propionate;
(§7) d. “a group of the combinations of sodium benzoate and sodium propionate”: each test tube contained 5 milliliters of enrichment broth, and was added in 0.05 percent (weight/volume) of sodium benzoate and 0.25 percent (weight/volume) of sodium propionate;
(§8) e. “a group of the combinations of sodium benzoate and 2-phenylethanol”: each test tube contained 5 milliliters of enrichment broth, and was added in 0.05 percent (weight/volume) of sodium benzoate and 0.05 percent (weight/volume) of 2-phenylethanol;
(§9) f. “a group of the combinations of sodium propionate and 2-phenylethanol”: each test tube contained 5 milliliters of enrichment broth, and was added in 0.25 percent (weight/volume) of sodium propionate and 0.05 percent (weight/volume) of 2-phenylethanol;
(§10) g. “a group of the combinations of sodium benzoate, sodium propionate and 2-phenylethanol”: each test tube contained 5 milliliters of enrichment broth, and was added in 0.05 percent (weight/volume) of sodium benzoate, 0.25 percent (weight/volume) of sodium propionate, and 0.05 percent (weight/volume) of 2-phenylethanol;
(§11) h. positive control: one tube that contained 5 milliliters of enrichment broth without adding in any of the 2-phenylethanol, sodium benzoate, and sodium propionate, but inoculated the suspension of Escherichia coli or Staphylococcus aureus.
(§12) i. negative control: one tube that contained 5 milliliters of enrichment broth without adding in any of the 2-phenylethanol, sodium benzoate, and sodium propionate, and not inoculated the suspension of Escherichia coli or Staphylococcus aureus.
(§13) The requirements for aseptic operation technique were strictly followed to prepare the bacterial suspensions. The colonies of Escherichia coli and Staphylococcus aureus were diluted with physiological saline respectively to prepare bacterial suspension. The turbidities of the Escherichia coli suspension and the Staphylococcus aureus suspension were adjusted to 0.5 MCF (about 10^8 CFU/ml) by a turbidimeter. 1 milliliter of the 0.5 MCF bacterial suspensions were added into 9 milliliters of the enrichment broth respectively, so each bacterial solution was diluted for ten times to contain 10^7 CFU/ml of bacterial organisms.
(§14) The requirements for aseptic operation technique were strictly followed to take 100 microliters of the prepared bacterial suspensions respectively, and to add the bacterial suspensions into the aforesaid test tubes from a to h as well as positive control tube. No bacterial suspension was added into the negative control tube i.
(§15) The above tubes were cultured in a biochemical incubator at 37° C. for 24 hours, then turbidity changes of the test tube solutions were observed and recorded.
(§16) Remark: “+” means the growth of bacteria; “−” means no growth of bacteria.

[2] = tested on: three strains of Staphylococcus aureus isolated from the vaginal secretion of patients with vaginitis; test: as above; set-up: key to growth of Staphylococcus aureus, Bacterial strain 1 / growth of Staphylococcus aureus, Bacterial strain 2 / growth of Staphylococcus aureus, Bacterial strain 3: +: means the growth of bacteria; −: means no growth of bacteria; settings: for growth of Staphylococcus aureus, Bacterial strain 1 / growth of Staphylococcus aureus, Bacterial strain 2 / growth of Staphylococcus aureus, Bacterial strain 3: enrichment broth, 37° C. for 24 hours, turbidity
Description: as §1, §2, §3, §4, §5, §6, §7, §8, §9, §10, §11, §12, §13, §14, §15, §16

[3] = tested on: nine strains of Candida albicans; test: Growth of Candida in enrichment broth after 24 hours, clinical strains; settings: agent alone, 0.025 percent (weight/volume), broth pH 4.5, 37° C. 24 hours
Description: b. Enrichment broth: which contained 1 percent of yeast extract powder, 9 percent of sucrose, 0.025 percent of manganese sulfate (MnSO4.4H2O), 0.058 percent of magnesium sulfate (MgSO4.7H2O), and 0.9 percent of lactic acid, the pH value of the broth was adjusted to 4.5, and the enrichment broth was sterilized for later use;
(2) Experimental groups: the requirements of aseptic operation technique were strictly followed so to prepare the sterile test tubes;
a. sodium benzoate group: each test tube contained 5 milliliters enrichment broth, and was added in 0.025 percent (weight/volume) of sodium benzoate;
b. 2-phenylethanol group: each test tube contained 5 milliliters enrichment broth, and was added in 0.050 percent (weight/volume) of 2-phenylethanol;
c. sodium propionate group: each test tube contained 5 milliliters enrichment broth, and was added in 0.125 percent (weight/volume) of sodium propionate;
d. “a group of the combinations of sodium benzoate and sodium propionate”: each test tube contained 5 milliliters enrichment broth, and was added in 0.025 percent (weight/volume) of sodium benzoate and 0.125 percent (weight/volume) of sodium propionate;
e. “a group of the combinations of sodium benzoate and 2-phenylethanol”: each test tube contained 5 milliliters enrichment broth, and was added in 0.025 percent (weight/volume) of sodium benzoate and 0.050 percent (weight/volume) of 2-phenylethanol;
f. “a group of the combinations of sodium propionate and 2-phenylethanol”: each test tube contained 5 milliliters enrichment broth, and was added in 0.125 percent (weight/volume) of sodium propionate and 0.050 percent (weight/volume) of 2-phenylethanol;
g. “a group of the combinations of sodium benzoate, sodium propionate and 2-phenylethanol”: each test tube contained 5 milliliters enrichment broth, and was added in 0.025 percent (weight/volume) of sodium benzoate, 0.125 percent (weight/volume) of sodium propionate and 0.050 percent (weight/volume) of 2-phenylethanol;
h. positive control: the control tube of enrichment broth without adding in 2-phenylethanol, sodium benzoate, and sodium propionate; but inoculated the suspension of Candida albicans;
i. negative control: the control tube of enrichment broth without adding in 2-phenylethanol, sodium benzoate, and sodium propionate; and without inoculating Candida albicans;
The requirements for aseptic operation technique were strictly followed to prepare the suspension of organism. The colonies of each strain of Candida albicans organism were diluted with physiological saline respectively. The turbidities of the suspensions of Candida albicans organism were adjusted to 0.5 MCF (about 10^8 CFU/ml) by a turbidimeter. 1 milliliter of the 0.5 MCF organism suspension was added into 9 milliliters of enrichment broth. Each suspension was diluted for ten times to contain 10^7 CFU/ml of organisms.
the requirements for aseptic technique were strictly followed to take 100 microliters of the prepared organism suspension respectively and to add the suspension into the test tubes from a to h as well as the positive control tube. No organism suspension was added into the negative control tube i.
The above tubes were cultured in a biochemical incubator at 37° C. for 24 hours. Then the growth of Candida in each tube was observed and recorded.
Remark: “+” means the growth of organisms; “−” means no growth of organisms.

[4] = tested on: Lactobacillus jensenii; test: Gram-stained smear of co-culture gel, Gram-positive rods (G+b); settings: for Smear G^+b: cultivated 32 hours
Description: (§17) 2.1 Experimental strains: one Lactococcus lactis strain and one Lactobacillus jensenii strain, both were clinical isolates.
(§18) The pH value was adjusted to 5.0.
(§19) 2.4 Experimental procedure: the test gel tubes containing different concentrations of antimicrobial agents, as shown in Tables 1 to 6 were inoculated with 100 microliters of Lactobacillus lactis suspension and 100 microliters of Lactobacillus jensenii suspension at the same time. The turbidities of both suspensions were 0.5 MCF. Then the tubes were cultivated at 37° C. and under 5 percent CO2 for 32 hours. Then the changes of the pH values of gels were tested. The gels were smeared, Gram stained, and microscopically examined for the morphology and quantity of bacteria.

[5] = tested on: Lactococcus lactis; test: Gram-stained smear of co-culture gel, Gram-positive cocci (G+c); settings: for Smear G^+c: cultivated 32 hours
Description: as §17, §18, §19

[6] = tested on: Lactococcus lactis and Lactobacillus jensenii; test: pH of test gel after co-culture of Lactococcus lactis and Lactobacillus jensenii; settings: cultivated 32 hours
Description: as §17, §18, §19

[7] = 0.05 percent (weight/volume) in enrichment broth pH 4.8, 37° C. 24 hours

Structure (SMILES)	growth of Escherichia coli, Bacterial strain 1 [1]	growth of Escherichia coli, Bacterial strain 2 [1]	growth of Escherichia coli, Bacterial strain 3 [1]	growth of Staphylococcus aureus, Bacterial strain 1 [2]	growth of Staphylococcus aureus, Bacterial strain 2 [2]	growth of Staphylococcus aureus, Bacterial strain 3 [2]	other results
O=C([O-])c1ccccc1.[Na+] [a. 0.05% sodium benzoate]	+	+	+	+	+	+	
OCCc1ccccc1 [b. 0.05% 2-phenylethanol]	+	+	+	+	+	+	
CCC(=O)[O-].[Na+] [c. 0.25% sodium propionate]	+	+	+	+	+	+	
O=C([O-])c1ccccc1.[Na+] [sodium benzoate]							could inhibit the growth of Escherichia coli (agent alone, words) [1, 7]: no one of the three antimicrobial agents; number of the nine Candida albicans strains that grew [3]: nine; Smear G^+b ([4]; 0.035 % in test gel): G^+b+; Smear G^+b ([4]; 0.05 % in test gel): G^+b+; Smear G^+b ([4]; 0.065 % in test gel): G^+b++; inhibition effect on the growth of Lactobacillus ([4]; 0.065 to 0.1 percent): weaker inhibition effect; Smear G^+b ([4]; 0.1 % in test gel): G^+b+++; Smear G^+c ([5]; 0.035 % in test gel): G^+c++++; Smear G^+c ([5]; 0.05 % in test gel): G^+c++++; Smear G^+c ([5]; 0.065 % in test gel): G^+c++; inhibition effect on the growth of Lactococcus lactis ([5]; 0.065 to 0.1 percent): stronger inhibition effect; Smear G^+c ([5]; 0.1 % in test gel): G^+c+; pH value ([6]; 0.035 % in test gel): <3.8; pH value ([6]; 0.05 % in test gel): <3.8; pH value ([6]; 0.065 % in test gel): 4.1; pH value ([6]; 0.1 % in test gel): 4.6; could inhibit the growth of Staphylococcus aureus (agent alone, words) [2, 7]: no one of the three antimicrobial agents
